Reference: US5409817A, “Use of trans-sialidase and sialyltransferase for synthesis of sialylα2→3βgalactosides” (priority 1993, dated 1995)
Read-outs that look alike come from different tables or passages of the source.

Columns and labels:
[1] = target: T. crusi trans-sialidase (Trypanosoma cruzi, UniProt P23253); assay: Suitability as acceptor for the trans-sialidase; assay type: biochemical
Description: The third principal enzyme used here is the trans-sialidase of Trypanosoma crusi (T. crusi) whose isolation and reactivity was reported in Vendekerckhove et al., Glycobiology, 6:541 (1992). This enzyme is often referred to as the trans-sialidase, and has a broad specificity for transferring sialic acid from a wide variety of NeuAcα2→3βGal-containing donor oligosaccharides to the non-reducing terminus (end) of a narrower range oligosaccharide acceptors whose nonreducing terminal saccharide is a β-linked Gal. A sialic acid is not transferred from an α(2,6)-linked Gal.
Thus, using the α(2,3)sialyltransferase acceptors of Scheme 2 (Compounds 2a and 2b) as exemplary and keeping in mind the before-discussed structural preferences and requirements of the T. crusi trans-sialidase for an acceptor substrate, it is seen that Compound 2a that has a non-reducing terminal Galβ1→3GlcNAc linkage, whereas Compound 2b contains a Galβ1→3GalNAc linkage, neither of which is preferred for an acceptor for the trans-sialidase, and both are present in a catalytic amount.

[2] = test system: α(2,3)sialyltransferases; assay: Suitability as substrate of α(2,3)sialyltransferases; assay type: biochemical; conditions: all known α(2,3)sialyltransferases
Description: First, the corresponding galactoside Compound 3 [Jansson et al., J. Org. […] Second, after protection of hydroxy and carboxylate groups and selective cleavage of 2-(trimethylsilyl)ethyl glycoside, the sialoside Compound 4 is readily converted to a disaccharide glycosyl donor that can be used in the block chemical synthesis of ganglioside GM4 and more complex sialosides [(a) Suguimoto et al., Tetrahedron Lett., 31:385 (1990); (b) Kameyama et al., Carbohydr. Res., 209 (1991)] as reported by others.

[3] = target: T1, α-(2,3)Sialyltransferase EC 2.4.99.4 (Sus scrofa, UniProt Q02745); conditions: acceptor for EC 2.4.99.4, cited from earlier work
T1 sequence (Q02745 1-343): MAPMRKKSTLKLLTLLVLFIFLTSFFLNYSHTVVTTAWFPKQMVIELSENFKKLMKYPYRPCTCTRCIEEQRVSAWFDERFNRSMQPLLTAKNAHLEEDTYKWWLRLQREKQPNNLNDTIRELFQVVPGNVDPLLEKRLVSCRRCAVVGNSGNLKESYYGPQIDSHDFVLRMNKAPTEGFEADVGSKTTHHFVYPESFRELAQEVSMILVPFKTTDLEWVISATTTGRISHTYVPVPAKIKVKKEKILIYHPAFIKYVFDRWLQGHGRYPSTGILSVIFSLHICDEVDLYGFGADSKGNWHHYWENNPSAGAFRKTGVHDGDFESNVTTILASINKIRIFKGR

[4] = target: T2, α-(2,3)Sialyltransferase EC 2.4.99.6 (Rattus norvegicus, UniProt Q02734); conditions: acceptor for EC 2.4.99.6, cited from earlier work
T2 sequence (Q02734 1-374): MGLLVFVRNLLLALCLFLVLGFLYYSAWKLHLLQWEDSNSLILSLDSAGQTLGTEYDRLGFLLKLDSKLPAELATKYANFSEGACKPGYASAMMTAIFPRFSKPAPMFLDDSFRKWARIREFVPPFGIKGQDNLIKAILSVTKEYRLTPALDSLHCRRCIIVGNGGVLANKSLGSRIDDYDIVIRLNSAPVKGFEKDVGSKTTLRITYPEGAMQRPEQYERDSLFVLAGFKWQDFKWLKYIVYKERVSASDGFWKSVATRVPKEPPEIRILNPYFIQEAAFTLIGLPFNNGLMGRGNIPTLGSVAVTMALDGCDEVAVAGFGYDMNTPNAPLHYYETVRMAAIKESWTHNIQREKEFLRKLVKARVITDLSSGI

[5] = value approximated from the data in Rearick et al.

Sequence of T. crusi trans-sialidase (P23253 whole entry): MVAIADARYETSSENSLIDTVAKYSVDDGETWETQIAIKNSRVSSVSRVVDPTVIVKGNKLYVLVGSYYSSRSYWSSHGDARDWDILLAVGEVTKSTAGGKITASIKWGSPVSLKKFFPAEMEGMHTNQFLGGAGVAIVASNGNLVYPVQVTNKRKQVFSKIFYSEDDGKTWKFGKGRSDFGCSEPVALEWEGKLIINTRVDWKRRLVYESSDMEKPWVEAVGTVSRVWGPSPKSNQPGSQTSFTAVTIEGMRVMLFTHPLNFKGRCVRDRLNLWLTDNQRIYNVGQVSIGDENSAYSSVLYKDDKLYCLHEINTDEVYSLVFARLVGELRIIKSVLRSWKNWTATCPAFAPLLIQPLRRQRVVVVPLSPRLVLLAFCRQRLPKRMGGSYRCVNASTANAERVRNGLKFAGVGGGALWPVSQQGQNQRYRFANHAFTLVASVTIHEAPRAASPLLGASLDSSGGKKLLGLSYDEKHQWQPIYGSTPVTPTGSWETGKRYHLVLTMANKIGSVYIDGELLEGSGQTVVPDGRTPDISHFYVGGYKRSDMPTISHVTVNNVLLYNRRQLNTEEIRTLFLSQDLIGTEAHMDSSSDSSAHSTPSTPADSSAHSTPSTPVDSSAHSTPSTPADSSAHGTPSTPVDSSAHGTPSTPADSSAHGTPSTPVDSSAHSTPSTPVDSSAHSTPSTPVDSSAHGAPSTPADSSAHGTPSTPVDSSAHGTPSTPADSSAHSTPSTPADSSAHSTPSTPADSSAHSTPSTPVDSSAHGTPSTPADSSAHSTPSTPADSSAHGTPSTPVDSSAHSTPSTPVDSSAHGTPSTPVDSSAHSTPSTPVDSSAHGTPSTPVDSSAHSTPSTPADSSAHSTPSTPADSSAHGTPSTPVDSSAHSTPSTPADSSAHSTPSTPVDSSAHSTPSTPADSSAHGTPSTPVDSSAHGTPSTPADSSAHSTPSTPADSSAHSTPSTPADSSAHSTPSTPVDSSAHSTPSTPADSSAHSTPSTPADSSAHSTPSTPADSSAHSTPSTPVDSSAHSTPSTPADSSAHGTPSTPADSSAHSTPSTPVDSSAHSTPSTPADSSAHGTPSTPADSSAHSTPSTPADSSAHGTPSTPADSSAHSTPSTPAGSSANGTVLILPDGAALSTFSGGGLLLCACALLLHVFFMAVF

| Compound | Km /Vmax [3] | Km [4] | Km /Vmax [4] | other results |
| --- | --- | --- | --- | --- |
| CC(=O)N[C@H]1[C@H](O[C@H]2[C@@H](O)[C@@H](CO)O[C@@H](O[C@H]3[C@H](O)[C@@H](O)C(O)O[C@@H]3CO)[C@@H]2O)O[C@H](CO)[C@@H](O)[C@@H]1O[C@@H]1O[C@H](CO)[C@H](O)[C@H](O)[C@H]1O (some centres unmarked) [Compound 2a] |  |  |  | acceptor quality for the trans-sialidase [1]: relatively poor acceptors |
| CC(=O)N[C@H]1[C@H](OCC[Si](C)(C)C)O[C@H](CO)[C@H](O)[C@@H]1O[C@@H]1O[C@H](CO)[C@H](O)[C@H](O)[C@H]1O [Compound 2b] |  |  |  | acceptor quality for the trans-sialidase [1]: relatively poor acceptors |
| C[Si](C)(C)CCO[C@@H]1O[C@H](CO)[C@H](O)[C@H](O)[C@H]1O [Compound 3] |  |  |  | substrate quality for α(2,3)sialyltransferases [2]: poor substrate |
| CC(=O)N[C@H]1C(O)O[C@H](CO)[C@H](O)[C@@H]1O[C@@H]1O[C@H](CO)[C@H](O)[C@H](O)[C@H]1O (some centres unmarked) [Galβ1→3GalNAc] | 0.024 mM-units mg |  |  | Km /Vmax ([4]; value approximated from the data in Weinstein et al.): > 10 mM-units mg |
| CC(=O)N[C@H]1C(O)O[C@H](CO)[C@@H](O)[C@@H]1O[C@@H]1O[C@H](CO)[C@H](O)[C@H](O)[C@H]1O (some centres unmarked) [Galβ1→3GlcNAc] | 15 mM-units mg | 640 µM | 0.55 mM-units mg |  |
| CC(=O)N[C@H]1C(O)O[C@H](CO)[C@@H](O[C@@H]2O[C@H](CO)[C@H](O)[C@H](O)[C@H]2O)[C@@H]1O (some centres unmarked) [Galβ1→4GlcNAc] | 382 mM-units mg | 2700 µM | 3.6 mM-units mg |  |
| OC[C@H]1O[C@@H](O[C@H]2[C@H](O)[C@@H](O)C(O)O[C@@H]2CO)[C@H](O)[C@@H](O)[C@H]1O (some centres unmarked) [Galβ1→4Glc] | 290 mM-units mg |  | 10 mM-units mg |  |
| CC(=O)N[C@H]1C(O)O[C@H](CO[C@@H]2O[C@H](CO)[C@H](O)[C@H](O)[C@H]2O)[C@@H](O)[C@@H]1O (some centres unmarked) [Galβ1→6GlcNAc] | 121 mM-units mg |  |  |  |
| CO[C@@H]1O[C@H](CO)[C@H](O)[C@H](O)[C@H]1O [Galβ1→OCH3] |  |  |  | Km /Vmax [3, 5]: > 100 mM-units mg |
| CC(=O)N[C@H]1[C@H](O[C@H]2[C@@H](O)[C@@H](CO)O[C@@H](O[C@H]3[C@H](O)[C@@H](O)C(O)O[C@@H]3CO)[C@@H]2O)O[C@H](CO)[C@@H](O[C@@H]2O[C@H](CO)[C@H](O)[C@H](O)[C@H]2O)[C@@H]1O (some centres unmarked) [lacto-N-neo-tetraose, Galβ1→4GlcNAcβ1→3Galβ1→4Glc] |  | 4220 µM | 4.3 mM-units mg | Km /Vmax [3, 5]: > 100 mM-units mg; Vmax [4]: 0.98 units/mg |
| CC(=O)N[C@H]1[C@H](O[C@H]2[C@@H](O)[C@@H](CO)O[C@@H](O[C@H]3[C@H](O)[C@@H](O)C(O)O[C@@H]3CO)[C@@H]2O)O[C@H](CO)[C@@H](O)[C@@H]1O[C@@H]1O[C@H](CO)[C@H](O)[C@H](O)[C@H]1O (some centres unmarked) [lacto-N-tetraose, Galβ1→3GlcNAcβ1→3Galβ1→4Glc] | 7.5 mM-units mg | 90 µM | 0.09 mM-units mg | Km [3]: 27000 µM |
